Test results taken from patent publication US9125913B2, “Bcl-2-selective apoptosis-inducing agents for the treatment of cancer and immune diseases” (AbbVie Inc., priority 2008, dated 2015).
Read-outs that look alike come from different tables or passages of the source.

Columns and labels:
[1] = biological target: GST-Bcl-2 (Homo sapiens (Human), UniProt P10415); test: TR-FRET binding assay, Bcl-2; conditions: TR-FRET; GST-Bcl-2 1 nM, F-Bak probe 100 nM, Tb-anti-GST 1 nM
Summary of the method: (§1)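 Compounds serially diluted in DMSO from 50 μM (2× starting concentration, 10% DMSO), mixed with GST-tagged protein, F-Bak peptide probe and Tb-labeled antibody, incubated 3 h at room temperature.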

[2] = test system: GST-Bcl-2; test: TR-FRET binding assay, Bcl-2; conditions: TR-FRET Ki values
Summary of the method: as §1

[3] = biological target: GST-Bcl-XL (Homo sapiens (Human), UniProt Q07817); test: TR-FRET binding assay, Bcl-XL; conditions: GST-Bcl-XL 1 nM, F-Bak probe 100 nM, Tb-anti-GST 1 nM
Procedure: Tb-anti-GST antibody was purchased from Invitrogen (Catalog No. PV4216).
Representative compounds were serially diluted in dimethyl sulfoxide (DMSO) starting at 50 μM (2× starting concentration; 10% DMSO) and 10 μL were transferred into a 384-well plate.
The samples were then mixed on a shaker for 1 minute and incubated for an additional 3 hours at room temperature. For each assay, the probe/antibody and protein/probe/antibody were included on each assay plate as negative and positive controls, respectively. Fluorescence was measured on the Envision (Perkin Elmer) using a 340/35 nm excitation filter and 520/525 (F-Bak peptide) and 495/510 nm (Tb-labeled anti-Histidine antibody) emission filters.
The inhibition constant (Ki) is the dissociation constant of an enzyme-inhibitor complex or a protein/small molecule complex, wherein the small molecule is inhibiting binding of one protein to another protein or peptide. […] Inhibition constants were determined using Wang's equation (Wang Z-X., An Exact Mathematical Expression For Describing Competitive Binding Of Two Different Ligands To A Protein Molecule. FEBS Lett. 1995, 360:111-4).

[4] = test system: FL5.12/Bcl-2 cells; test: FL5.12/Bcl-2 cell viability assay; format: cell-based, murine; conditions: for Selectivity Ratio (Platelet EC50/FL5.12/Bcl-2 EC50): ratio of canine platelet EC50 to FL5.12/Bcl-2 EC50
Summary of the method: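 Viability measured by CellTitre Glo after FL5.12/Bcl-2 murine cells, starved of IL-3 for 48 hrs, were treated with compounds for another 24 hrs. Killing reflects inhibition of Bcl-2 sequestration of Bim and Puma.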

[5] = test system: isolated canine platelets; test: Platelet cell viability assay; format: cell-based; conditions: Canis lupus familiaris, 5 h; isolated canine platelets (platelet-rich plasma), five hours at 37° C., Cell Titer Glo
Procedure: After the incubation, platelets were equilibrated to room temperature for 20 minutes and then an equal volume of Cell Titer Glo reagent (Promega Corporation) was added. Samples were mixed for two minutes and then allowed to equilibrate for an additional 10 minutes at room temperature. The luminescence generated from the samples was quantitated using an LJL Analyst plate reader.
The effect of compounds on platelet survival can be directly evaluated ex vivo by examining the viability of isolated canine platelets in the presence of various concentrations of compound.

[6] = test system: circulating platelets; conditions: following injection into C57BL/6 mice; cited from earlier work
[7] = test system: circulating platelets; conditions: following injection in beagle canines; cited from earlier work

Sequence of GST-Bcl-XL (Q07817 whole entry): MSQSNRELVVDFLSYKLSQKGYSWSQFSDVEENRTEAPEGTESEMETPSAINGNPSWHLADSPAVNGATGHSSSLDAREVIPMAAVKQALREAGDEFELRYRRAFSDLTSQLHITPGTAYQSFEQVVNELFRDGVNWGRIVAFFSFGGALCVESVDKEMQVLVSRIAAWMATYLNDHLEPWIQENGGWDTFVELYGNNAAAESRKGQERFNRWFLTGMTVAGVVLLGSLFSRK
Sequence of GST-Bcl-2 (Homo sapiens (Human), UniProt P10415) (P10415 whole entry, looked up): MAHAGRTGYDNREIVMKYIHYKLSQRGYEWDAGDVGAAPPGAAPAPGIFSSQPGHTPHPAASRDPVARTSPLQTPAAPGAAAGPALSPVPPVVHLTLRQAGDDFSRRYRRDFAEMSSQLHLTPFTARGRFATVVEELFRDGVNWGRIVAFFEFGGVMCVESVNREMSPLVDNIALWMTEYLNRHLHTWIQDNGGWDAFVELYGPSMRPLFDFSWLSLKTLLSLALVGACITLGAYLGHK

CN1CCC(Nc2ccc(S(=O)(=O)NC(=O)c3ccc(N4CCN(CC5=C(c6ccc(Cl)cc6)CC(C)(C)CC5)CC4)cc3Oc3ccc4[nH]ccc4c3)cc2S(=O)(=O)C(F)(F)F)CC1 [Example 76, 4-(4-{[2-(4-chlorophenyl)-4,4-dimethylcyclohex-1-en-1-yl]methyl}piperazin-1-yl)-2-(1H-indol-5-yloxy)-N-({4-[(1-methylpiperidin-4-yl)amino]-3-[(trifluoromethyl)sulfonyl]phenyl}sulfonyl)benzamide]
Ki [1]: 0.05 nM | Binding selectivity ratio (Bcl-XL Ki/Bcl-2 Ki) [2]: 64.5 | Ki [3]: 10 µM | Selectivity Ratio (Platelet EC50/FL5.12/Bcl-2 EC50) [4]: 221

CN1CCC(Nc2ccc(S(=O)(=O)NC(=O)c3ccc(N4CCN(CC5=C(c6ccc(Cl)cc6)CCC5)CC4)cc3Oc3cccc4[nH]ccc34)cc2[N+](=O)[O-])CC1 [Example 148, 4-(4-{[2-(4-chlorophenyl)cyclopent-1-en-1-yl]methyl}piperazin-1-yl)-2-(1H-indol-4-yloxy)-N-({4-[(1-methylpiperidin-4-yl)amino]-3-nitrophenyl}sulfonyl)benzamide]
Binding selectivity ratio (Bcl-XL Ki/Bcl-2 Ki) [2]: >228.4 | EC50 ([4]; Mus musculus, FL5.12/Bcl-2 cells, IL-3 withdrawal, 24 hrs treatment, CellTitre Glo): 0.07 µM | Selectivity Ratio (Platelet EC50/FL5.12/Bcl-2 EC50) [4]: 278 | EC50 [5]: 120 µM

CN(C)CC[C@H](CSc1ccccc1)Nc1ccc(S(=O)(=O)NC(=O)c2ccc(N3CCN(Cc4ccccc4-c4ccc(Cl)cc4)CC3)cc2)cc1[N+](=O)[O-] [ABT-737, 4-(4-((4′-chloro-1,1′-biphenyl-2-yl)methyl)piperazin-1-yl)-N-((4-(((1R)-3-(dimethylamino)-1-((phenylthio)methyl)propyl)amino)-3-nitrophenyl)sulfonyl)benzamide]
decrease in circulating platelets [6]: rapid, concentration dependant decrease in circulating platelets | decrease in circulating platelets [7]: rapid, concentration dependant decrease in circulating platelets

CN(C)CCOc1ccc(-c2ccc(Cl)cc2)c(CN2CCN(c3ccc(C(=O)NS(=O)(=O)c4ccc(NC5CCN(CC(F)(F)F)CC5)c([N+](=O)[O-])c4)c(Oc4ccccc4)c3)CC2)c1 [Example 137, 4-[4-({4′-chloro-4-[2-(dimethylamino)ethoxy]-1,1′-biphenyl-2-yl}methyl)piperazin-1-yl]-N-[(3-nitro-4-{[1-(2,2,2-trifluoroethyl)piperidin-4-yl]amino}phenyl)sulfonyl]-2-phenoxybenzamide]
Binding selectivity ratio (Bcl-XL Ki/Bcl-2 Ki) [2]: 52.4 | Selectivity Ratio (Platelet EC50/FL5.12/Bcl-2 EC50) [4]: >178

CN1CCC(Nc2ccc(S(=O)(=O)NC(=O)c3ccc(N4CCN(CC5=C(c6ccc(Cl)cc6)CC(C)(C)CC5)CC4)cc3Oc3ccc4[nH]ccc4c3)cc2S(=O)(=O)C(F)(F)Cl)CC1 [Example 74, N-({3-{[chloro(difluoro)methyl]sulfonyl}-4-[(1-methylpiperidin-4-yl)amino]phenyl}sulfonyl)-4-(4-{[2-(4-chlorophenyl)-4,4-dimethylcyclohex-1-en-1-yl]methyl}piperazin-1-yl)-2-(1H-indol-5-yloxy)benzamide]
Binding selectivity ratio (Bcl-XL Ki/Bcl-2 Ki) [2]: 1262.5 | Selectivity Ratio (Platelet EC50/FL5.12/Bcl-2 EC50) [4]: 1989

CN(C)CCCNc1ccc(S(=O)(=O)NC(=O)c2ccc(N3CCN(CC4=C(c5ccc(Cl)cc5)CC(C)(C)CC4)CC3)cc2Oc2ccc3[nH]ccc3c2)cc1C#N [Example 172, 4-(4-{[2-(4-chlorophenyl)-4,4-dimethylcyclohex-1-en-1-yl]methyl}piperazin-1-yl)-N-[(3-cyano-4-{[3-(dimethylamino)propyl]amino}phenyl)sulfonyl]-2-(1H-indol-5-yloxy)benzamide]
Binding selectivity ratio (Bcl-XL Ki/Bcl-2 Ki) [2]: 32.1 | Selectivity Ratio (Platelet EC50/FL5.12/Bcl-2 EC50) [4]: >257

CN1CCC(Nc2ccc(S(=O)(=O)NC(=O)c3ccc(N4CCN(CC5=C(c6ccc(Cl)cc6)CC(C)(C)CC5)CC4)cc3Oc3cccc4[nH]ccc34)cc2[N+](=O)[O-])CC1 [Example 103, 4-(4-{[2-(4-chlorophenyl)-4,4-dimethylcyclohex-1-en-1-yl]methyl}piperazin-1-yl)-2-(1H-indol-4-yloxy)-N-({4-[(1-methylpiperidin-4-yl)amino]-3-nitrophenyl}sulfonyl)benzamide]
Binding selectivity ratio (Bcl-XL Ki/Bcl-2 Ki) [2]: 2096.1 | Selectivity Ratio (Platelet EC50/FL5.12/Bcl-2 EC50) [4]: 2305
